Values after ≈ are worked out from the molar mass of the structure shown.
Key:
S. marcescens 1826E = experiment: Minimum inhibitory concentration, agar dilution; format: cell-based; details: Serratia marcescens, Muller-Hinton agar, 10^7 CFU per ml, 37° C., 20 hours
Method: (§1) The minimum inhibitory concentration was determined by diluting the test compounds according to 2-fold dilution, suspending them in M uller-Hinton agar medium, inoculating the test strains having 10^7 CFU per 1 ml into the medium and then culturing the medium at 37° C. for 20 hours.

E. coli TEM1 1193E = experiment: Minimum inhibitory concentration, agar dilution; format: cell-based; details: Escherichia coli, TEM11193E, 20 h, read-out: Minimum Inhibitory Concentration
Method: as §1

P. aeruginosa 10145 = experiment: Minimum inhibitory concentration, agar dilution; format: cell-based; details: Pseudomonas aeruginosa, Muller-Hinton agar, 10^7 CFU per ml, 37° C., 20 hours
Method: as §1

S. aureus 6538pA = experiment: Minimum inhibitory concentration, agar dilution; format: cell-based; details: Staphylococcus aureus, Muller-Hinton agar, 10^7 CFU per ml, 37° C., 20 hours
Method: as §1

S. faecalis 29212A = experiment: Minimum inhibitory concentration, agar dilution; format: cell-based; details: Enterococcus faecalis; S. faecalis 29212A; Muller-Hinton agar, 10^7 CFU per ml, 37° C., 20 hours; read-out: Minimum Inhibitory Concentration
Method: as §1

E. coli TEM9 2639E = experiment: Minimum inhibitory concentration, agar dilution; format: cell-based; details: Escherichia coli, TEM92639E, 20 h, read-out: Minimum Inhibitory Concentration
Method: as §1

S. typhimurium 14028A = experiment: Minimum inhibitory concentration, agar dilution; format: cell-based; details: Salmonella enterica; S. typhimurium 14028A; Muller-Hinton agar, 10^7 CFU per ml, 37° C., 20 hours; read-out: Minimum Inhibitory Concentration
Method: as §1

A. calcoaceticus 15473A = experiment: Minimum inhibitory concentration, agar dilution; format: cell-based; details: Acinetobacter calcoaceticus, Muller-Hinton agar, 10^7 CFU per ml, 37° C., 20 hours
Method: as §1

S. aureus giorigio = experiment: Minimum inhibitory concentration, agar dilution; format: cell-based; details: Staphylococcus aureus, Muller-Hinton agar, 10^7 CFU per ml, 37° C., 20 hours
Method: as §1

E. coli 10536 = experiment: Minimum inhibitory concentration, agar dilution; format: cell-based; details: Escherichia coli; E. coli 10536; Muller-Hinton agar, 10^7 CFU per ml, 37° C., 20 hours; read-out: Minimum Inhibitory Concentration
Method: as §1

K. aerogenes 1976E = experiment: Minimum inhibitory concentration, agar dilution; format: cell-based; details: Klebsiella aerogenes, Muller-Hinton agar, 10^7 CFU per ml, 37° C., 20 hours
Method: as §1

E. coli TEM5 3739E = experiment: Minimum inhibitory concentration, agar dilution; format: cell-based; details: Escherichia coli, TEM53739E, 20 h, read-out: Minimum Inhibitory Concentration
Method: as §1

E. cloacae 1194E = experiment: Minimum inhibitory concentration, agar dilution; format: cell-based; details: Enterobacter cloacae, 1194E, 20 h, read-out: Minimum Inhibitory Concentration
Method: as §1

E. coli 3190Y = experiment: Minimum inhibitory concentration, agar dilution; format: cell-based; details: Escherichia coli; E. coli 3190Y; Muller-Hinton agar, 10^7 CFU per ml, 37° C., 20 hours; read-out: Minimum Inhibitory Concentration
Method: as §1

P. aeruginosa 1912E = experiment: Minimum inhibitory concentration, agar dilution; format: cell-based; details: Pseudomonas aeruginosa, 20 h, read-out: Minimum Inhibitory Concentration
Method: as §1

P. aeruginosa 6065Y = experiment: Minimum inhibitory concentration, agar dilution; format: cell-based; details: Pseudomonas aeruginosa, 20 h, read-out: Minimum Inhibitory Concentration
Method: as §1

[1] = Pharmacokinetic properties in SD rats; format: in vivo; details: rat; SD rats (male), intravenous, 20 mg/kg; blood, biological assay (agar well method)
Method: The pharmacokinetic properties of the compound of the present invention were determined using SD rats (.male.) weighing 220 to 340 g. Specifically, the test samples were administered in intravenous route in an amount of 20 mg/kg to 2 to 5 test animals. Blood was taken from femoral vein every hours after the administration and then subjected to a biological assay using agar well method to measure the blood concentration. The results of pharmacokinetic properties calculated from the above blood concentration are described in the following Table 3.

## Cn1cc[n+]2c(SCC3=C(C(=O)[O-])N4C(=O)C(NC(=O)C(=NOC(C(=O)O)c5ccc(O)c(O)c5)c5csc(N)n5)C4SC3)nc(N)cc12 (stereo not drawn) [I-11(a), 7-[(Z)-2-(2-aminothiazol-4-yl)-2-(α-carboxy-3,4-dihydroxybenzyloxyimino)acetamido]-3-(7-amino-1-methyl-1H-imidazo[1,2-c]pyrimidinium-5-yl)-thiomethyl-3-cephem-4-carboxylate]
S. marcescens 1826E
  MIC: 0.25 µg/mL (≈ 0.344 µM)
E. coli TEM1 1193E
  MIC: 0.063 µg/mL (≈ 0.0866 µM)
P. aeruginosa 10145
  MIC: 0.25 µg/mL (≈ 0.344 µM)
S. aureus 6538pA
  MIC: 0.5 µg/mL (≈ 0.687 µM)
S. faecalis 29212A
  MIC: 8 µg/mL (≈ 11 µM)
E. coli TEM9 2639E
  MIC: 1 µg/mL (≈ 1.37 µM)
S. typhimurium 14028A
  MIC: 0.016 µg/mL (≈ 0.022 µM)
A. calcoaceticus 15473A
  MIC: 0.5 µg/mL (≈ 0.687 µM)
S. aureus giorigio
  MIC: 0.5 µg/mL (≈ 0.687 µM)
E. coli 10536
  MIC: ≤ 8 ng/mL
K. aerogenes 1976E
  MIC: 0.13 µg/mL (≈ 0.179 µM)
E. coli TEM5 3739E
  MIC: 0.25 µg/mL (≈ 0.344 µM)
E. cloacae 1194E
  MIC: 1 µg/mL (≈ 1.37 µM)
E. coli 3190Y
  MIC: 0.031 µg/mL (≈ 0.0426 µM)
P. aeruginosa 1912E
  MIC: 0.5 µg/mL (≈ 0.687 µM)
P. aeruginosa 6065Y
  MIC: 0.5 µg/mL (≈ 0.687 µM)
[1]
  AUC: 47900 ng·h/mL
  half-life: 68 min
